Laboratory results: US11186577B2, “Vasopressin receptor antagonists and products and methods related thereto” (BlackThorn Therapeutics, Inc., priority 2017, dated 2021)
Read-outs that look alike come from different tables or passages of the source.

Tests used:
MDR1-MDCK cells = assay: MDR1-MDCK effective efflux assay (Transwell, 10 μM, 1 hour), MDR1-MDCK cells; type: in vitro ADME; settings: for Papp AB MDR1: MDR1-MDCK cells, apical to basolateral (A>B), 10 μM, 1 hour; for MDR1 EER / MDR1 ER: MDCK-MDR1
Procedure: (§1) The MDR1-MDCK effective efflux assay was performed as described in the BioFocus Standard Operating Procedure, ADME-SOP-56. Both wild-type (WT) and MDR1-MDCK cells (Solvo Biotechnology) were seeded onto 24-well Transwell plates at 2.35×10^5 cells per well and used in confluent monolayers after a 3 day culture at 37° C. under 5% CO2. For both cell types, test and control compounds (propranolol, vinblastine) were added (10 μM, 0.1% DMSO final, n=2) to donor compartments of the Transwell plate assembly in assay buffer (Hanks balanced salt solution supplemented with 25 mM HEPES, adjusted to pH 7.4) for both apical to basolateral (A>B) and basolateral to apical (B>A) measurements. Incubations were performed at 37° C., with samples removed from both donor and acceptor chambers at T=0 and 1 hour and compound analysed by mass spectrometry (LC-MS/MS) including an analytical internal standard.
(§2) Where V is the volume of each Transwell compartment (apical 125 basolateral 600 and concentrations are the relative MS responses for compound (normalized to internal standard) in the donor chamber before incubation and acceptor chamber at the end of the incubation. Area=area of cells exposed for drug transfer (0.33 cm2).
(§3) Efflux ratios (Papp B>A/Papp A>B) were calculated for each compound from the mean Papp values in each direction for both wild-type and MDR1-MDCK cells.
(§4) In order to confirm the involvement of MDR1 in any efflux seen, an “effective efflux ratio” (EER) was calculated by comparing compound efflux ratios (ER) in the two cell types, i.e. EER=ER(MDR1−MDCK)/ER(wild-type MDCK)
(§5) This ratio illustrates the effect of the over-expressed MDR1 normalised for the background movement of compound through the wild-type cells.
(§6) Lucifer Yellow (LY) was added to the apical buffer in all wells to assess viability of the cell layer. Compound recovery from the wells was determined from MS responses (normalized to internal standard) in donor and acceptor chambers at the end of incubation compared to response in the donor chamber pre-incubation.

[1] = tested on: wild-type (WT) MDCK cells; assay: MDR1-MDCK effective efflux assay (Transwell, 10 μM, 1 hour), wild-type MDCK cells; type: in vitro ADME; settings: for Papp AB WT: wild-type MDCK cells, apical to basolateral (A>B), 10 μM, 1 hour; for WT ER: MDCK
Procedure: as §1, §2, §3, §4, §5, §6

[2] = target: human Arginine Vasopressin Receptor 1a (AVPR1a) (Homo sapiens (Human), UniProt P37288); assay: Vasopressin V1A receptor antagonist assay (AVP-evoked calcium, FLIPR, CHO-AVPR1a cells); type: cell-based; settings: read-out: V1a IC50
Chain of human Arginine Vasopressin Receptor 1a (AVPR1a) (P37288 whole entry): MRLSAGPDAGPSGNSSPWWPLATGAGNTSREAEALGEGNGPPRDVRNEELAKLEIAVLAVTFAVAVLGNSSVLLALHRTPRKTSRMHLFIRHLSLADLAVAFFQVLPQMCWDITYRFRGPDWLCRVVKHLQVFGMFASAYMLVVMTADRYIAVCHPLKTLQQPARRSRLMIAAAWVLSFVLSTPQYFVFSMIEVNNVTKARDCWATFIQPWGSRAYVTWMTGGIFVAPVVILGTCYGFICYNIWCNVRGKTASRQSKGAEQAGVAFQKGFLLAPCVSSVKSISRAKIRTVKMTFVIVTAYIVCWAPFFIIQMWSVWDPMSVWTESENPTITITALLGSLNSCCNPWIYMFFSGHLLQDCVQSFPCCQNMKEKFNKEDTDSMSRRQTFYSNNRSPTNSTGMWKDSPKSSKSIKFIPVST
In short: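 CHO cells expressing human AVPR1a, Calcium-6 dye loaded 60-90 min, preincubated with compound 15 min at 37° C., then challenged with AVP at its daily-determined EC80. FLIPR fluorescence; 10-point 1:3 series from 3 μM, duplicates.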

[3] = target: human Oxytocin Receptor (hOTR) (Homo sapiens (Human), UniProt P30559); assay: Oxytocin receptor antagonist assay (oxytocin-evoked calcium, FLIPR, CHEM-1-hOTR cells); type: cell-based; settings: read-out: OT IC50
Chain of human Oxytocin Receptor (hOTR) (P30559 whole entry): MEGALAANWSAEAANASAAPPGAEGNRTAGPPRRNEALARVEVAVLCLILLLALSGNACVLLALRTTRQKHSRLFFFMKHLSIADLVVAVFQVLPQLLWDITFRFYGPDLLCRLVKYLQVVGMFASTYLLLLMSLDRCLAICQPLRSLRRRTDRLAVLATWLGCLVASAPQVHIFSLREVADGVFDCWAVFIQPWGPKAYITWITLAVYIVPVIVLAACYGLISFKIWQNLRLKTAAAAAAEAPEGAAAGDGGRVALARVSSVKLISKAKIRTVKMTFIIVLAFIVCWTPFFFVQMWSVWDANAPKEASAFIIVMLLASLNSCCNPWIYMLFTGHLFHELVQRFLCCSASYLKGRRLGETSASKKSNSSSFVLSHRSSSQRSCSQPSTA
Procedure: This assay was performed in CHEM-1 cells expressing the human Oxytocin Receptor (hOTR) to determine the inhibitory effect of the compounds of the invention on the human Oxytocin receptor. Oxytocin evokes an increase in intracellular calcium in CHEM-1-hOTR cells which is measured in a fluorescence assay on the FLIPR^TETRA using calcium sensitive dyes. Test compounds were assessed for their ability to affect the magnitude of the response to oxytocin, with antagonists showing a concentration-dependent reduction in the oxytocin-mediated fluorescence.
CHEM-1-hOTR ready was used to assay frozen cells (Eurofins #HTS090RTA) which are supplied with a proprietary Media Component.
Cells were thawed in a 37° C. water bath and diluted with the supplied Media Component to a final volume of 10 ml. The cell suspension was centrifuged at 1000 rpm for 3 min at room temperature and the supernatant was discarded. The cell pellet was resuspended in Media Component (10.5 ml) and the cells (25 μL) were dispensed into a poly-D-lysine coated black, clear bottomed, 384-well plate. The plates were incubated overnight at 37° C., 5% CO2.
At the start of each assay day the potency of oxytocin was assessed and an EC80 concentration was determined for subsequent compound profiling. Assays were performed using a two-step addition protocol on the FLIPR^TETRA; first addition of 5 μl of control or test compound at 10× final in assay buffer with 15 min incubation at 37° C., 5% CO2 followed by 10 μl of oxytocin at 6× final concentration in assay buffer. Changes in fluorescence were monitored for 3 min after both additions on the FLIPR^TETRA using 470-495 nm excitation and 515-575 nm emission wavelengths. The assay buffer consisted of HBSS (+Ca/+Mg) supplemented with 20 mM HEPES, and for the preparation of the oxytocin agonist only, 0.1% w/v bovine serum albumin. The assay was initiated by the removal of growth media from the cells and replaced with 45 μl of Calcium-6 dye (Molecular Devices) prepared at 1× in assay buffer. Cells were loaded with dye for 60-90 min at 37° C., 5% CO2 before initiation of the FLIPR^TETRA protocol. […] For compound profiling, test compounds were first serially diluted in DMSO (10-point curve, 1:3 dilutions) then diluted 33.3-fold in assay buffer prior to addition to the dye loaded cells on the FLIPR^TETRA. At the end of the incubation period 10 μl of oxytocin in assay buffer containing 0.1% BSA was added at the previously determined EC80 concentration.
In-plate controls for the assay include a L-368,899 concentration-response curve as the reference OTR antagonist and an oxytocin concentration-response curve to confirm the reproducibility of the EC80 used for the compound challenge.

MDR1 (P-glycoprotein) = assay: MDR1-MDCK effective efflux assay (Transwell, 10 μM, 1 hour), MDR1-MDCK cells; type: in vitro ADME; settings: dog
Procedure: as §1, §2, §3, §4, §5, §6

[4] = MDR1-MDCK effective efflux assay (Transwell, 10 μM, 1 hour), wild-type MDCK cells; type: in vitro ADME; settings: dog, MDCK
Procedure: as §1, §2, §3, §4, §5, §6

[5] = MDCK-MDR1, pH 7.4, Papp AB MDR1
[6] = MDCK-MDR1, pH 7.4, MDR1-MDCK cells, apical to basolateral (A>B), 10 μM, 1 hour, read-out: Papp AB MDR1
[7] = pH 7.4, wild-type MDCK cells, apical to basolateral (A>B), 10 μM, 1 hour, read-out: Papp AB WT

| SMILES | Papp AB MDR1 (MDR1-MDCK cells) | Papp AB WT [1] | IC50 [2] [nM] | IC50 [3] [nM] | Papp A→B at 1 h, 10 μM (MDR1 (P-glycoprotein); [5]) [×10⁻⁶ cm/s] | MDR1 EER (MDR1-MDCK cells) | MDR1 ER (MDR1-MDCK cells) | Papp A→B at 1 h, 10 μM ([4]; pH 7.4, Papp AB WT) [×10⁻⁶ cm/s] | WT ER [1] | Papp A→B at 1 h, 10 μM (MDR1 (P-glycoprotein); [6]) [×10⁻⁶ cm/s] | Papp A→B at 1 h, 10 μM [4, 7] [×10⁻⁶ cm/s] |
| --- | --- | --- | --- | --- | --- | --- | --- | --- | --- | --- | --- |
| CCOC(=O)N1Cc2cc(Cl)ccc2-n2c(C3CC4(C3)CN(c3ncc(F)cn3)C4)nnc2C1C (single isomer, unassigned) [Cpd 172A] | ++++ ((++++) denotes >20 (10^-6 cm/sec)) | ++++ ((++++) denotes >20 (10^-6 cm/sec)) | < 100 | – | – | – | – | – | – | – | – |
| COC(=O)N1Cc2cc(Cl)ccc2-n2c(C3CC4(C3)CN(c3ccncn3)C4)nnc2C1C (single isomer, unassigned) [Cpd 184A] | – | ++++ ((++++) denotes >20 (10^-6 cm/sec)) | < 100 | – | – | – | – | – | – | – | – |
| CC1c2nnc(C3CC4(C3)CN(c3ncc(F)cn3)C4)n2-c2ccc(Cl)cc2CN1C(=O)OC(CF)CF (single isomer, unassigned) [Cpd 194A] | – | ++++ ((++++) denotes >20 (10^-6 cm/sec)) | < 100 | – | – | – | – | – | – | – | – |
| CC1c2nnc(C3CC4(C3)CN(c3ncccn3)C4)n2-c2ccc(Cl)cc2CN1C(=O)OC(CF)CF (single isomer, unassigned) [Cpd 202B] | + ((+) denotes an apparent permeability <7 (10^-6 cm/sec)) | ++++ ((++++) denotes >20 (10^-6 cm/sec)) | > 1000 | > 1000 | – | – | – | – | – | – | – |
| COc1ccc2c(c1)CN(C)Cc1nnc(C3CC4(C3)CN(c3cnccn3)C4)n1-2 [compound 19] | – | – | – | – | < 7 | + | + | > 20 | +++ | – | – |
| CN1Cc2cc(Cl)ccc2-n2c(nnc2C2CC3(C2)CN(C(=O)C2(F)CC2)C3)C1 [compound 36] | – | – | < 100 | – | < 7 | + | + | 10 to 20 | ++ | – | – |
| COC(=O)N1Cc2cc(Cl)ccc2-n2c(nnc2C2CC3(C2)CN(c2cccnn2)C3)C1 [compound 75] | – | – | < 100 | – | < 7 | + | + | 10 to 20 | – | – | – |
| COC(=O)N1Cc2cc(Cl)ccc2-n2c(nnc2C2CC3(C2)CN(c2ncccn2)C3)C1 [compound 95] | – | – | < 100 | 500 to 1000 | – | – | – | – | – | < 7 | > 20 |
| CC(C)OC(=O)N1Cc2cc(Cl)ccc2-n2c(nnc2C2CC3(C2)CN(c2ccc(F)cn2)C3)C1 [compound 111] | – | – | < 100 | 100 to 500 | – | – | – | – | – | > 20 | > 20 |
| COC(=O)N1Cc2cc(Cl)ccc2-n2c(nnc2C2CC3(C2)CN(c2cccc(C)n2)C3)C1 [compound 115] | – | – | < 100 | – | 10 to 20 | + | + | > 20 | +++ | – | – |
| O=C(C1CC1)N1CC2(CC(c3nnc4n3-c3ccc(Cl)cc3CN(C(=O)C(F)(F)F)C4)C2)C1 [compound 137] | – | – | < 100 | – | < 7 | + | + | < 7 | + | – | – |
| CC(C)OC(=O)N1Cc2cc(Cl)ccc2-n2c(nnc2C2CC3(C2)CN(C(=O)C2(F)CC2)C3)C1 [compound 147] | – | – | < 100 | – | < 7 | + | + | < 7 | + | – | – |
| O=C(C1COC1)N1Cc2cc(Cl)ccc2-n2c(nnc2C2CC3(C2)CN(c2ccc(F)cn2)C3)C1 [compound 160] | – | – | < 100 | – | < 7 | + | + | < 7 | + | – | – |
| COC(=O)N1Cc2cc(Cl)ccc2-n2c(nnc2C2CC3(C2)CN(C(=O)C2CC2)C3)C1 [compound 162] | – | – | < 100 | – | < 7 | + | + | < 7 | + | – | – |
| CC(C)OC(=O)N1Cc2cc(Cl)ccc2-n2c(C3CC4(C3)CN(c3ccc(F)cn3)C4)nnc2C1C (centres unmarked) [compound 163] | – | – | < 100 | – | > 20 | +++ | +++ | > 20 | ++++ | – | – |
| CC1c2nnc(C3CC4(C3)CN(c3ccc(F)cn3)C4)n2-c2ccc(Cl)cc2CN1C(=O)C(F)F (centres unmarked) [compound 176] | – | – | < 100 | – | 7 to 10 | + | + | > 20 | ++++ | – | – |
| CC1c2nnc(C3CC4(C3)CN(c3ccc(F)cn3)C4)n2-c2ccc(Cl)cc2CN1C (centres unmarked) [compound 179] | – | – | 100 to 500 | – | > 20 | ++ | + | > 20 | +++ | – | – |
| CC(C)OC(=O)N1Cc2cc(Cl)ccc2-n2c(nnc2C2CC3(C2)CN(c2ncncc2F)C3)C1 [compound 185] | – | – | < 100 | 500 to 1000 | – | – | – | – | – | > 20 | > 20 |
| CC(C)OC(=O)N1Cc2cc(Cl)ccc2-n2c(C3CC4(C3)CN(c3ccncn3)C4)nnc2C1C (centres unmarked) [compound 187] | – | – | 100 to 500 | – | > 20 | – | ++ | > 20 | ++++ | – | – |
| CC1c2nnc(C3CC4(C3)CN(c3ncc(F)cn3)C4)n2-c2ccc(Cl)cc2CN1C(=O)OC1CC1 (centres unmarked) [compound 192] | – | – | < 100 | – | > 20 | +++ | +++ | > 20 | +++ | – | – |
| CC1c2nnc(C3CC4(C3)CN(c3ccc(F)cn3)C4)n2-c2ccc(Cl)cc2CN1C(=O)OC1CCC1 (centres unmarked) [compound 195] | – | – | – | – | > 20 | ++++ | +++ | 10 to 20 | +++ | – | – |
| CC1c2nnc(C3CC4(C3)CN(c3ncccn3)C4)n2-c2ccc(Cl)cc2CN1C(=O)OC(CF)CF (centres unmarked) [compound 202] | – | – | – | – | < 7 | + | + | > 20 | ++++ | – | – |
| CC1c2nnc(C3CC4(C3)CN(c3ccc(F)cn3)C4)n2-c2ccc(Cl)cc2CN1C(=O)OC(CF)CF (centres unmarked) [compound 203] | – | – | – | – | 10 to 20 | +++ | ++ | > 20 | +++ | – | – |
